The Cmax is the highest concentration seen after dosing.

The test system of data set [1] is Helicobacter pylori 26695 (ATCC700329). Description: Anti-H. pylori in vitro efficacy test, MIC and MBC by microdilution (CLSI). It counts as cell-based. Conditions: strain 26695; unit not given in table (method uses μg/mL). As for the experimental part:
(§1) Helicobacter pylori 26695 (ATCC700329): A strain isolated from a patient known to be associated with the development of gastric cancer. The strain is cytotoxin associated gene (CagA)-positive and vacuolating cytotoxin (VacA)-positive and has a well-known genetic background, so it is mainly used for research purposes. An antibiotic susceptibility testing was performed using the microdilution method according to the CLSI guideline. […] The bacteria were inoculated into wells containing only medium without antibiotics to prepare the positive control group, and the wells containing only medium without antibiotics or inoculated bacteria were used as the negative control group. The concentration range of the test substances, zastaprazan (JP-1366) and fexuprazan, was determined through preliminary experiments. […] The lowest concentration at which no bacterial growth was observed was determined as the MIC. […] The lowest concentration at which no bacteria growth occurred was determined as the MBC. […] All tests were performed in duplicate, and the results were determined by conducting the experiments in triplicate.
(In general: Broth dilution looks for growth in wells or tubes with falling amounts of substance.)

The test system of data set [2] is Helicobacter pylori (ATCC43504). Described as above. It counts as cell-based. Conditions: strain 43504, unit not given in table (method uses μg/mL); for MIC: 3 days, microaerobic. The protocol:
as §1, with “(ATCC43504): Type” for “26695 (ATCC700329): A”, “for antibiotic susceptibility testing according” for “isolated from a patient known”, “to” for “to be associated with”, “Clinical & Laboratory Standards Institute (CLSI) guidelines.” for “development of gastric cancer. The strain is cytotoxin associated gene (CagA)-positive and vacuolating cytotoxin (VacA)-positive and has a well-known genetic background, so it is mainly used for research purposes.”

Data set [3] relates to Helicobacter pylori SS1 (mouse colonizing strain). The data set is described as above. It counts as cell-based. As for the experimental part:
Helicobacter pylori SS1 (mouse colonizing strain): A strain known as Sydney strain. The strain is CagA-positive and VacA-positive and has been confirmed to infect and colonize in C57BL/6 mice. The strain is used in animal testing. An antibiotic susceptibility testing was performed using the microdilution method according to the CLSI guideline. […] The bacteria were inoculated into wells containing only medium without antibiotics to prepare the positive control group, and the wells containing only medium without antibiotics or inoculated bacteria were used as the negative control group. The concentration range of the test substances, zastaprazan (JP-1366) and fexuprazan, was determined through preliminary experiments. […] The lowest concentration at which no bacterial growth was observed was determined as the MIC. […] The lowest concentration at which no bacteria growth occurred was determined as the MBC. […] All tests were performed in duplicate, and the results were determined by conducting the experiments in triplicate.

Data set [4] has the same test system. Description: Efficacy of JP-1366 to enhance antibacterial activity of clarithromycin, MIC and MBC by microdilution. It counts as cell-based. The conditions noted are these: H. pylori SS1. The protocol: Helicobacter pylori SS1 (mouse colonizing strain): Known as Sydney strain, the strain is […] and VacA-positive, and has been confirmed to colonize mice C57BL/6 and is used in animal experiments.
An antibiotic susceptibility test was performed by the microdilution method according to CLSI guideline.
The antibiotic susceptibility test was performed using MH broth (7% horse serum, 0.4% IsoVitalex), and the susceptibility test medium for zastaprazan (JP-1366) was prepared at this time. […] Using the medium prepared in this way, clarithromycin was serially diluted 2-fold and in 16 steps, with a maximum concentration of 16 μg/mL. Wells containing only the medium without antibiotics were used as a negative control group, and wells inoculated only with the bacteria in the medium without antibiotics were used as a positive control group. H. pylori stored in a deep freezer (−70° C. or lower) was inoculated onto BHI agar (w/7% laked horse blood, 0.4% IsoVitalex) and cultured for three days at 37° C. under microaerophilic conditions (Oxoid CampyGene gas pk) and then subcultured onto a fresh medium. The cultured bacteria were harvested, suspended in PBS, and inoculated into each well at a concentration of 5×10^5 CFU/mL. Thereafter, the bacteria were cultured for three days at 37° C. under microaerophilic conditions of 5% 02, 10% CO2, and 85% N2 gas. The lowest concentration of the sample at which no bacterial growth was observed was determined as the MIC. […] The lowest concentration at which no bacterial growth was observed was determined as the minimum bactericidal concentration(MBC).

Data set [5] relates to patients with erosive gastroesophageal reflux disease. Description: Phase 2 clinical trial, healing of mucosal breaks and symptoms. It counts as in vivo, human. The protocol:
H. pylori testing was performed by 13C-urea breath test (13C-UBT), gastroscopy (Campylobacter-like organism test, CLO), or tissue biopsy to confirm H. pylori positivity/negativity. The testing was performed at the screening visit (Visit 1) or the randomization visit (Visit 2), and results from the same institution within 29 days prior to the randomization visit (Visit 2) could be substituted. This clinical trial was a randomized, double-blind, active-controlled, multicenter, phase 2 clinical trial targeting patients with erosive gastroesophageal reflux disease. After the subjects gave written consent to participate in the clinical trial, a screening test was conducted. […] At this time, the subjects were stratified by grade (A, B, C, D) according to the LA classification system classified by upper gastrointestinal endoscopy. Randomly assigned subjects took the clinical trial drug once a day according to the assigned administration group for four weeks. After four weeks of administration of the clinical trial drug, the subjects visited the clinical trial institution to undergo an upper gastrointestinal endoscopy to assess whether they were healed. Healed subjects underwent a Safety Follow-Up (F/U) two weeks later, and unhealed subjects were administered the clinical trial drug for additional four weeks (a total of 8 weeks of administration) and visited the clinical trial institution to undergo an upper gastrointestinal endoscopy. […] 3.

Data set [6] in a line: Drug interaction (PK) trial of JP-1366, amoxicillin and clarithromycin in healthy adult volunteers. The data set is classed as in vivo, human. The text has this:
Test drug and administration period A. Test drug 1: […] Jeil Pharmaceutical • Dose: […] Oral B. […] Selection and classification of clinical trial subjects […]

A short description of data set [7]: Solubility seen during MIC analysis. The data set is classed as physicochemical. The conditions noted are these: in MIC medium; suspension formed, MIC analysis difficult. The text has this: Referring to Table 4 below, since the solubility of zastaprazan (JP-1366) was low, the MIC analysis was difficult (poor solubility, formation of suspension, interference in visual/absorbance analysis), so the inhibitory effect on the H. pylori strains was confirmed through the MBC index.

Where [8] appears, read: strain SS1, unit not given in table (method uses μg/mL).
The mark [9] stands for this setting: MH medium + JP1366 at ½ MIC concentration, unit not given.
Where [10] appears, read: MH medium, unit not given in table (method uses μg/mL).
Setting [11] is: JP-1366, three-drug regimen vs JP-1366 alone.

As for `CC1(C)S[C@@H]2[C@H](NC(=O)[C@H](N)c3ccc(O)cc3)C(=O)N2[C@H]1C(=O)O` [Amoxicillin], the MBC turned out to be 0.032 in data set [1], 0.032 in data set [2] and 0.25 in data set [3] (setting [8]). For the same molecule, the MIC in data set [1] and in data set [2] was 0.016~0.032 each time.
On to `CC[C@H]1OC(=O)[C@H](C)[C@@H](O[C@H]2C[C@@](C)(OC)[C@@H](O)[C@H](C)O2)[C@H](C)[C@@H](O[C@@H]2O[C@H](C)C[C@H](N(C)C)[C@H]2O)[C@](C)(OC)C[C@@H](C)C(=O)[C@H](C)[C@@H](O)[C@]1(C)O` [Clarithromycin], for which the MBC in data set [4] (setting [9]) is 0.032 to 0.063; in data set [4] (setting [10]), 0.063 to 0.125; in data set [1], 0.125; in data set [2], 0.063; in data set [3] (setting [8]) it was 0.125. Moreover, the MIC in data set [4] (setting [9]) is on record as 0.032 to 0.063; in data set [4] (setting [10]), 0.032 to 0.063; in data set [1] it was 0.063~0.125; in data set [2], 0.032; in data set [3] (setting [8]), 0.032. Also, in data set [4] (medium with zastaprazan (JP1366) at ½ MIC concentration vs MH medium), the “lowering of MBC in medium containing JP1366” value was “about ½”.
On to `CNCc1cn(S(=O)(=O)c2cccc(F)c2)c(-c2ccc(F)cc2F)c1OC` [Fexuprazan], for which the MBC in data set [1], in data set [2] and in data set [3] (setting [8]) was 64~128 in each case. For the same molecule, the MIC in data set [1], in data set [2] and in data set [3] (setting [8]) was 64 each time.
Take `COc1ccc2[nH]c([S+]([O-])Cc3ncc(C)c(OC)c3C)nc2c1` (stereo not drawn) [Omeprazole]: the MBC is given as 64~128 in data set [1], 64 in data set [2] and 64~128 in data set [3] (setting [8]). For the same molecule, the results for the MIC in data set [1], in data set [2] and in data set [3] (setting [8]) were 32~64, 32 and 32~64, respectively.
In the case of `Cc1cccc(C)c1CNc1cc(C(=O)N2CCC2)cn2c(C)c(C)nc12.O=C(O)CC(O)(CC(=O)O)C(=O)O` [JP-1366, azetidin-1-yl{8-[(2,6-dimethylbenzyl)amino]-2,3-dimethylimidazo[1,2-a]pyridin-6-yl}methanone citrate salt], the MBC in data set [1] was 16~32; in data set [2], 8~32; in data set [3] (Helicobacter pylori, stated in Example 5 method, H. pylori SS1, read-out: maximum MBC value), 32 µg/mL; in data set [3] (setting [8]) it was 16~32. Also, the “healing effect compared with Nexium 40 mg” value in data set [5] (H. pylori-negative group, 20 mg) is “the same effect as Nexium 40 mg”. In addition, the “symptoms (heartburn, acid reflux, heartburn/acid reflux) within 24 hours and for seven days after administration” value in data set [5] (JP-1366 5 mg two capsules (10 mg) once a day) and in data set [5] (JP-1366 20 mg one capsule once a day) was “all symptoms tended to be ameliorated” in each case. Besides, in data set [6] (setting [11]), the “AUCT higher when T3 was administered compared to T1” value is “approximately 2.4 times”. Further, the “AUCτ, Geometric LS Mean Ratio (T3/T1), Point Estimate” value in data set [6] (setting [11]) is reported as 2.4422. For the same molecule, the “Cmax, ss higher when T3 was administered compared to T1” value in data set [6] (setting [11]) is “approximately 1.8 times”. Also, the “Cmax, ss, Geometric LS Mean Ratio (T3/T1), Point Estimate” value in data set [6] (setting [11]) is listed as 1.7766. Besides, the Cmax in data set [6] (human, in vivo, JP-1366 after T1: JP-1366 20 mg 1 capsule alone, twice daily, 5 days, oral, N = 24, read-out: Cmax, ss, Geometric LS Mean) stood at 156 ng/mL. Besides, the “increase of area under the concentration-time curve (AUCT) compared to single administration” value in data set [6] (zastaprazan combined with amoxicillin and clarithromycin) is given as “more than twofold”. In data set [7], the solubility result was “low”.
